Several values for one entry are separate records, joined by “and”; a condition that tells them apart may be missing. Equal entries are not always repeated. Marks after values point to notes of the source that are not given here.
Tests used:
Format in all cases: physicochemical
[1] = Longitudinal relaxivity (r1) from T1 measurements at 60 MHz, absence of copper; details: for r1 (no Cu): no copper, 60 MHz, 20 mM HEPES buffer, pH 7, 37° C., 0.2 mM Gd^3+
Method: (§1) The longitudinal relaxivity values for the CG contrast agents in the absence or presence of copper ions were determined using T1 measurements at 60 MHz. Studies were performed at 37° C. in 20 mM HEPES buffered to pH 7, and solutions of the purified CG sensors for relaxivity experiments contained 0.2 mM Gd^3+ as determined by ICP-OES. Spectroscopic data are collected in Table 1.
Nuclear magnetic relaxation dispersion (NMRD) experiments provide supporting evidence for this proposal (vide infra).

[2] = Longitudinal relaxivity (r1) turn-on response to Cu+ from T1 measurements at 60 MHz; details: pH 7, 37° C.; for r1 (1 equiv Cu): 20 mM HEPES buffer
Method: as §1
Upon addition of up to 1 equiv of copper ions, the relaxivity values of the CG contrast agents increase, establishing the ability of these probes to sense copper using the MR modality (Table 1, FIG. 3). CG2, CG3, CG4, and CG5 respond to Cu^+ with relaxivity increases ranging from 92% to 360%. […] These values represent the largest relaxivity enhancements observed to date for metal-activated MR contrast agents and a ca. 9-fold improvement in copper ion response compared to CG1 (41% increase). The observed differences in turn-on Cu^+ responses for benzyl-substituted CG4 (290% increase) versus methyl-substituted CG5 (92% increase) with the same pyridyl-thioether receptor show the marked effects that small peripheral substitutions can have on relaxivity properties.

[3] = Electrochemical Cu2+/Cu+ reduction potentials of copper-bound CG complexes; details: PBS buffer, pH 7.4
Method: (§2) CG6 is a unique member of the CG family that is equally responsive to both Cu^+ and Cu^2+. Addition of either Cu^+ or Cu^2+ to CG6 triggers a maximum 73% relaxivity turn-on from r1=2.2 mM^−1s^−1 to r1=3.8 mM^−1s^−1. […] On the other hand, copper-bound CG6, which responds to both Cu^+ and Cu^2+, has the least positive Cu^2+/Cu^+ reduction potential at +0.13 V.

[4] = Metal ion selectivity of relaxivity response (competing metal ions alone or with added copper); details: relaxivity at 60 MHz, 20 mM HEPES, pH 7, 37° C.
Method: FIG. 6. Relaxivity responses of CG2 to various metal ions. White bars represent the addition of an excess of the appropriate metal ion (10 mM for Na^+, 2 mM for K^+, Mg^2+, and Ca^2+, and 0.2 mM for Fe^2+, Fe^3+, Cu^2+) to a 0.2 mM solution of CG2. Response to Zn^2+ was measured both at 0.2 mM Zn^2+ (Zn^2+1×) and 2 mM Zn^2+ (Zn^2+10×). Black bars represent the subsequent addition of 0.2 mM Cu^+ to the CG2 solution. Relaxivity measurements were acquired at 37° C. in 20 mM HEPES buffer, pH 7, at a proton Larmor frequency of 60 MHz.
The potential ability of this new family of CG sensors to sense bioavailable copper pools in either or both its predominant oxidation states represents a significant advance over the initial CG1 compound.

[5] = Nuclear magnetic relaxation dispersion (NMRD) profiles, Solomon-Bloembergen-Morgan fit; details: for τs0 (electronic relaxation time at zero field) / r1p 20 MHz 25° C. / a (distance of closest approach of outer-sphere water protons) / Δ^2 (average quadratic transient zero field splitting) / τv (electronic correlation time) / q / τR (rotational correlation time): copper free; for r1p 20 MHz 25° C.: 0.5 mM, 20 mM HEPES pH 7; for a (distance of closest approach of outer-sphere water protons) / Δ^2 (average quadratic transient zero field splitting) / τv (electronic correlation time): best-fit value; for q: fixed in the fitting procedure; for τR (rotational correlation time): not experimentally determined, assumed equal to corresponding q ≠ 0 complex (CG5: average of the other complexes)
Method: FIG. 9. ^1H Nuclear magnetic relaxation dispersion profiles of CG3 and CG3+Cu^+ acquired at 25° C. The solid lines represent the best fit profiles.
As a secondary, independent set of experiments to further probe the mechanisms of copper ion sensing by the CG contrast agents, we also performed nuclear magnetic relaxation dispersion (NMRD) measurements of these sensors in the absence and in the presence of copper ions using a field cycling relaxometer (FIG. 9). The profiles obtained were analyzed following Solomon-Bloembergen-Morgan theory^36-38 for the inner-sphere relaxivity and the Freed model^115 for the outer-sphere relaxivity, fixing the diffusion coefficient (D) at […], the distance between Gd^3+ and the inner sphere water protons (r) at 3.1 Å, and the inner sphere exchange lifetime (τM) at 160 ns, the reported value for the parent complex Gd^3+-DO3A. Profiles were obtained for all compounds in the copper-free state. Profiles in the presence of Cu^n+ were obtained for CG2-4 (Cu^+) and CG6 (Cu^2+).
In fact, the measured outer-sphere relaxivities were so low that, in order to obtain a reasonable fit, the distance of closest approach of outer-sphere water protons (a) was allowed to vary. The distances obtained for the CG complexes (4.2-4.8 Å) were markedly longer than what is observed for typical Gd^3+ contrast agents with greater water access (3.8-4 Å). These values correlate with the copper-free relaxivities of CG2-6; longer a values give lower relaxivities and shorter a values give higher relaxivities. For Cu^+-sensing agents CG2-4, the estimated change in q of 2 as determined by DIS measurements was also observed in the fitted NMRD data. In fact, any attempt to fit the observed NMRD profiles with q=1 led to very poor agreement between experimental and calculated values. The change in q of 1 for CG6 upon addition of Cu^2+ as determined by NMRD is consistent with the lower turn-on response observed with this complex compared to CG2-4. The reduced q modulation for CG6 relative to CG2-4 could indicate that the carboxylic acid moiety used for Cu^2+ binding also interacts with the Gd^3+ center in the Cu^2+-bound state. The fitted rotational correlation times (τR) for copper-bound CG complexes all fall within the range expected for Gd^3+ complexes with molecular weights of 700-800 D. τR values for copper-free CG2-6 were fixed to values close to their copper-bound analogues as fits of NMRD data for q=0 complexes are not sensitive to small changes in τR. The values of Δ^2 (average quadratic transient zero field splitting), τv (electronic correlation time), and τs0 (electronic relaxation time at zero field), which govern the electronic relaxation time, are relatively similar to each other. These NMRD values are closer to those of Gd^3+-DTPA than Gd^3+-DOTA, reflecting the asymmetry of CG2-6.^64

[6] = Longitudinal relaxivity (r1) turn-on response to Cu2+ from T1 measurements at 60 MHz; details: pH 7, 37° C.
Method: as §1, §2

[7] = Dysprosium-induced 17O NMR shift (DIS) experiments for q; details: for q (estimated number of inner-sphere water molecules): calculated from q = 9 DyCl3
Method: FIG. 8. Plot of [DyCG2] vs. −Δ ppm of the ^17O signal of H2O in the absence and presence of 1 equiv Cu^+. Spectra were acquired at room temperature in 20 mM HEPES buffer, pH 7, at a ^17O Larmor frequency of 67.8 MHz.
To circumvent these issues, we turned our attention to an alternative method for obtaining q values, namely the application of ^17O NMR spectroscopy to Dy^3+ analogs of the CG sensors (DyCG2-6).^114 Specifically, interactions of water ligands with paramagnetic Dy^3+ ions lead to an upfield shift of the ^17O signals of H2O in a manner proportional to both the concentration of Dy^3+ and q. Moreover, this lanthanide-induced shift is largely insensitive to the non-water ligands coordinated to the paramagnetic metal center.^114 Dysprosium-induced shift (DIS) experiments for CG2 and CG3 were performed in 20 mM HEPES buffered to pH 7; CG4 and CG5 spectra were acquired in 10% acetonitrile in 20 mM HEPES buffered to pH 7 owing to solubility and stability of the Cu^+-bound complexes at higher Dy^3+ concentrations required for the DIS measurements (1-200 mmol/kg H2O). Dy concentrations were calculated using molality (with respect to H2O) since the ^17O shift represents the interaction between Dy^3+ and H2O; addition of CH3CN aids in stabilizing certain complexes but should not affect the DIS. The spectral results were calibrated to a DyCl3 standard (q=9) to determine the number of bound water molecules for the CG sensors with and without added Cu^+. A plot of varying DyCl3 concentrations versus DIS in pH 7 HEPES buffer has a slope of 324 ppm/(mol/kg H2O), which corresponds to a 36 ppm/(mol/kg H2O) shift per bound water molecule.
The effects of DyCG2 on the chemical shift of ^17O-labeled H2O were determined in the absence and presence of 1 equiv Cu^+ at various concentrations of Dy^3+ (FIG. 8). In the absence of Cu^+, the measured ^17O shift response for DyCG2 is 9 ppm/(mol/kg H2O), corresponding to q=0.3. When 1 equiv of Cu^+ is added, the observed shift response increases to 72 ppm/(mol/kg H2O), corresponding to q=2.0. […] DIS measurements of DyCG4 and DyCG5 without Cu^+ show slopes of 7 ppm/(mol/kg H2O) (q=0.2) and 12 ppm/(mol/kg H2O) (q=0.3), respectively. Cu^+ binding increases the DIS slopes for DyCG4 and DyCG5 to […] ([…]) and 41 ppm/(mol/kg H2O) (q=1.0), respectively.

[8] = 20 mM HEPES, pH 7, 1 equiv Cu^+
[9] = 10% CH3CN in 20 mM HEPES pH 7, 1 equiv Cu^+
[10] = 10% CH3CN in 20 mM HEPES pH 7, no Cu^+

## O=C([O-])CN1CCN(CC(=O)[O-])CCN(Cc2cccc(CN3CCSCCSCCSCC3)n2)CCN(CC(=O)[O-])CC1.[Gd+3] [CG3]
[1]
  r1 (no Cu): 1.5 mM⁻¹ s⁻¹
[2]
  r1 (1 equiv Cu): 6.9 mM^−1s^−1 and 6.9^b mM^−1s^−1
[3]
  Cu^2+/+ E1/2: 0.58 V vs. SHE
[4]
  redox specificity of relaxivity response (Cu^+ vs Cu^2+): give turn-on relaxivity increases with Cu^+ but do not respond to Cu^2+
[5]
  τs0 (electronic relaxation time at zero field): 96 ps
  r1p 20 MHz 25° C.: 1.6 mM⁻¹ s⁻¹
  a (distance of closest approach of outer-sphere water protons): 4.7 ± 0.09 Å
  Δ^2 (average quadratic transient zero field splitting): 3.2 ± 0.7 10^19 s^−2
  τv (electronic correlation time): 27 ± 4.4 ps
  q: 0^c
  τR (rotational correlation time): 130^d ps

## CCSCCN(CC(=O)[O-])Cc1cccc(CN2CCN(CC(=O)[O-])CCN(CC(=O)[O-])CCN(CC(=O)[O-])CC2)n1.[Gd+3] [CG6]
[1]
  r1 (no Cu): 2.2 mM⁻¹ s⁻¹
[2]; 1 equiv Cu^+ vs no Cu, 20 mM HEPES
  % increase in r1: 73%
[2]
  r1 (1 equiv Cu): 3.8 mM^−1s^−1 and 3.8^b,c mM^−1s^−1
[6]; 1 equiv Cu^2+ vs no Cu, 20 mM HEPES
  % increase in r1: 73%
[6]; 1 equiv Cu^2+, 20 mM HEPES buffer
  r1 (1 equiv Cu): 3.8 mM^−1s^−1 and 3.8^b,c mM^−1s^−1
[4]
  redox specificity of relaxivity response (Cu^+ vs Cu^2+): responds to both Cu^+ and Cu^2+ with the same relaxivity turn-on
[5]
  τs0 (electronic relaxation time at zero field): 61 ps
  r1p 20 MHz 25° C.: 2.2 mM⁻¹ s⁻¹
  a (distance of closest approach of outer-sphere water protons): 4.2 ± 0.13 Å
  Δ^2 (average quadratic transient zero field splitting): 8.4 ± 2.0 10^19 s^−2
  τv (electronic correlation time): 16 ± 2.7 ps
  q: 0^c
  τR (rotational correlation time): 80^d ps
[5]; upon addition of Cu^2+, determined by NMRD
  change in q: 1

## O=S(=O)([O-])[O-].[Cu+2] [CuSO4]
[1]; 20 mM HEPES buffer at 60 MHz and 37° C.
  relaxivity: < 0.1 mM⁻¹ s⁻¹

## CCSCCN(CCSCC)Cc1cccc(CN2CCN(CC(=O)[O-])CCN(CC(=O)[O-])CCN(CC(=O)[O-])CC2)n1.[Dy+3] [DyCG2]
[7]; [8]
  −Δ ppm/[Dy] (DIS slope): 72 ppm/(mol/kg H2O)
  q (estimated number of inner-sphere water molecules): 2.0
[7]; 20 mM HEPES, pH 7, no Cu^+
  −Δ ppm/[Dy] (DIS slope): 9 ppm/(mol/kg H2O)

## O=C([O-])CN1CCN(CC(=O)[O-])CCN(Cc2cccc(CN3CCSCCSCCSCC3)n2)CCN(CC(=O)[O-])CC1.[Dy+3] [DyCG3]
[7]; [8]
  −Δ ppm/[Dy] (DIS slope): 79 ppm/(mol/kg H2O)
  q (estimated number of inner-sphere water molecules): 2.2
[7]; 20 mM HEPES, pH 7, no Cu^+
  −Δ ppm/[Dy] (DIS slope): 11 ppm/(mol/kg H2O)

## CCSCCN(Cc1ccccc1)Cc1cccc(CN2CCN(CC(=O)[O-])CCN(CC(=O)[O-])CCN(CC(=O)[O-])CC2)n1.[Dy+3] [DyCG4]
[7]; [9]
  −Δ ppm/[Dy] (DIS slope): 84 ppm/(mol/kg H2O)
  q (estimated number of inner-sphere water molecules): 2.1
[7]; [10]
  −Δ ppm/[Dy] (DIS slope): 7 ppm/(mol/kg H2O)

## CCSCCN(C)Cc1cccc(CN2CCN(CC(=O)[O-])CCN(CC(=O)[O-])CCN(CC(=O)[O-])CC2)n1.[Dy+3] [DyCG5]
[7]; [9]
  −Δ ppm/[Dy] (DIS slope): 41 ppm/(mol/kg H2O)
  q (estimated number of inner-sphere water molecules): 1.0
[7]; [10]
  −Δ ppm/[Dy] (DIS slope): 12 ppm/(mol/kg H2O)

From patent US20110294992A1, “METAL RESPONSIVE MRI-AGENTS” (The Regents of the University of California, priority 2010, published 2011)
